# Test system: primary human hepatocytes (PHH)
# Assay: LipocyteProfiler of drug-treated primary human hepatocytes
# Assay type: cell-based
# Details: PHH metformin treatment (5 mM, 24h); t-test
# Experimental: Primary human hepatocytes (PHH) were purchased from BioIVT. Donor lot YNZ was used in this study. PHH were thawed and immediately resuspended in CP media (BioIVT) supplemented with torpedo antibiotic (BioIVT). Cell count and viability were assessed by trypan blue exclusion test prior to plating. […] Four hours after plating, media was replaced with fresh CP media. After 24 h, media was replaced with fresh CP media or CP media containing oleic acid (0.3 mM) or metformin (5 mM). Hepatocytes were incubated for an additional 24 h prior to processing. Human primary AMSCs and PHH were plated in 96-well CellCarrier plates (Perkinelmer #6005550). […] Primary human hepatocytes were stained after 48 h in culture, and 24h following treatment with oleic acid or metformin. On the respective day of the assay, cell culture media was removed and replaced by 0.5 μM Mitotracker staining solution (1 mM MitoTracker Deep Red stock (Invitrogen #M22426) diluted in culture media) to each well followed by 30 minutes incubation at 37° C.' protected from light. […] PFA was removed and cells were washed once with Hank's Balanced Salt Solution (1×), HBSS (Gibco #14025076). […] Finally, staining solution was removed and cells were washed three times with HBSS. Cells were imaged using a Opera Phenix High content screening system. […] Prior to processing, flat field illumination correction was performed using functions generated from the median intensity across each plate. Nuclei were identified using the DAPI stain and then expanded to identify whole cells using the Phalloidin/WGA and BODIPY stains. Regions of cytoplasm were then determined by removing the Nuclei from the Cell segmentations. Speckles of BODIPY staining were enhanced to assist in detection of small and large individual Lipid objects. For each object set measurements were collected representing size, shape, intensity, granularity, texture, colocalization and distance to neighbouring objects. After LipocyteProfiler (LP) feature extraction data was filtered by applying automated and manual quality control steps. […] Second, every field was assessed visually and fields that were corrupted by experimental induced technical artifacts were removed. Furthermore, blocklisted features (Way, Gregory (2019): Blocklist Features-Cell Profiler. figshare. […] After filtering data were normalised per plate using a robust scaling approach (Pedregosa et al. 2011) that subtracts the median from each variable and divides it by the interquartile range. Individual wells were aggregated for downstream analysis by cell depot and day of differentiation.
structure (smiles),measurement,value
CN(C)C(=N)N=C(N)N [metformin],Nuclei_Intensity_IntegratedIntensityEdge_AGP t-statistics,−8.2E+00
same,Nuclei_Intensity_IntegratedIntensityEdge_DNA t-statistics,−1.8E+01
same,Nuclei_Intensity_IntegratedIntensityEdge_Mito t-statistics,5.3E+00
same,Nuclei_Intensity_IntegratedIntensity_DNA t-statistics,−1.3E+01
same,Nuclei_Intensity_IntegratedIntensity_Lipid t-statistics,−5.7E+00
same,Nuclei_Intensity_IntegratedIntensity_Mito t-statistics,7.3E+00
same,Nuclei_Intensity_LowerQuartileIntensity_AGP t-statistics,−1.4E+01
same,Nuclei_Intensity_LowerQuartileIntensity_DNA t-statistics,−1.9E+01
same,Nuclei_Intensity_LowerQuartileIntensity_Lipid t-statistics,−5.4E+00
same,Nuclei_Intensity_LowerQuartileIntensity_Mito t-statistics,7.7E+00
same,Nuclei_Intensity_MADIntensity_AGP t-statistics,−2.2E+01
same,Nuclei_Intensity_MADIntensity_DNA t-statistics,4.7E+00
same,Nuclei_Intensity_MADIntensity_Mito t-statistics,1.2E+01
same,Nuclei_Intensity_MassDisplacement_AGP t-statistics,1.9E+01
same,Nuclei_Intensity_MassDisplacement_DNA t-statistics,6.2E+01
same,Nuclei_Intensity_MassDisplacement_Lipid t-statistics,2.6E+01
same,Nuclei_Intensity_MassDisplacement_Mito t-statistics,1.2E+01
same,Nuclei_Intensity_MaxIntensityEdge_AGP t-statistics,−8.0E+00
same,Nuclei_Intensity_MaxIntensityEdge_DNA t-statistics,−1.3E+01
same,Nuclei_Intensity_MaxIntensityEdge_Mito t-statistics,3.3E+00
same,Nuclei_Intensity_MaxIntensity_AGP t-statistics,−1.6E+01
same,Nuclei_Intensity_MaxIntensity_Mito t-statistics,3.5E+00
same,Nuclei_Intensity_MeanIntensityEdge_AGP t-statistics,−8.2E+00
same,Nuclei_Intensity_MeanIntensityEdge_DNA t-statistics,−1.6E+01
same,Nuclei_Intensity_MeanIntensityEdge_Mito t-statistics,5.2E+00
same,Nuclei_Intensity_MeanIntensity_AGP t-statistics,−1.6E+01
same,Nuclei_Intensity_MeanIntensity_DNA t-statistics,−9.5E+00
same,Nuclei_Intensity_MeanIntensity_Lipid t-statistics,−4.6E+00
same,Nuclei_Intensity_MeanIntensity_Mito t-statistics,7.8E+00
same,Nuclei_Intensity_MedianIntensity_AGP t-statistics,−1.7E+01
same,Nuclei_Intensity_MedianIntensity_DNA t-statistics,−1.3E+01
same,Nuclei_Intensity_MedianIntensity_Lipid t-statistics,−4.5E+00
same,Nuclei_Intensity_MedianIntensity_Mito t-statistics,8.9E+00
same,Nuclei_Intensity_MinIntensityEdge_AGP t-statistics,−7.5E+00
same,Nuclei_Intensity_MinIntensityEdge_DNA t-statistics,−1.6E+01
same,Nuclei_Intensity_MinIntensityEdge_Lipid t-statistics,−8.5E+00
same,Nuclei_Intensity_MinIntensityEdge_Mito t-statistics,3.0E+00
same,Nuclei_Intensity_MinIntensity_AGP t-statistics,−7.8E+00
same,Nuclei_Intensity_MinIntensity_DNA t-statistics,−1.6E+01
same,Nuclei_Intensity_MinIntensity_Lipid t-statistics,−8.6E+00
same,Nuclei_Intensity_MinIntensity_Mito t-statistics,4.5E+00
same,Nuclei_Intensity_StdIntensityEdge_AGP t-statistics,−7.5E+00
same,Nuclei_Intensity_StdIntensityEdge_DNA t-statistics,−1.0E+01
same,Nuclei_Intensity_StdIntensityEdge_Lipid t-statistics,6.3E+00
same,Nuclei_Intensity_StdIntensityEdge_Mito t-statistics,5.2E+00
same,Nuclei_Intensity_StdIntensity_AGP t-statistics,−1.8E+01
same,Nuclei_Intensity_StdIntensity_DNA t-statistics,3.5E+00
same,Nuclei_Intensity_StdIntensity_Mito t-statistics,6.1E+00
same,Nuclei_Intensity_UpperQuartileIntensity_AGP t-statistics,−1.8E+01
same,Nuclei_Intensity_UpperQuartileIntensity_DNA t-statistics,−5.7E+00
same,Nuclei_Intensity_UpperQuartileIntensity_Lipid t-statistics,−4.4E+00
same,Nuclei_Intensity_UpperQuartileIntensity_Mito t-statistics,8.5E+00
same,Nuclei_Location_CenterMassIntensity_Y_AGP t-statistics,4.1E+00
same,Nuclei_Location_CenterMassIntensity_Y_DNA t-statistics,4.2E+00
same,Nuclei_Location_CenterMassIntensity_Y_Lipid t-statistics,4.1E+00
same,Nuclei_Location_CenterMassIntensity_Y_Mito t-statistics,4.2E+00
same,Nuclei_Location_Center_Y t-statistics,4.2E+00
same,Nuclei_Location_MaxIntensity_Y_AGP t-statistics,4.1E+00
same,Nuclei_Location_MaxIntensity_Y_DNA t-statistics,4.2E+00
same,Nuclei_Location_MaxIntensity_Y_Lipid t-statistics,4.1E+00
same,Nuclei_Location_MaxIntensity_Y_Mito t-statistics,4.5E+00
same,Nuclei_Neighbors_AngleBetweenNeighbors_2 t-statistics,−2.2E+01
same,Nuclei_Neighbors_FirstClosestDistance_2 t-statistics,−3.5E+00
same,Nuclei_Neighbors_FirstClosestObjectNumber_2 t-statistics,−1.2E+01
same,Nuclei_Neighbors_NumberOfNeighbors_2 t-statistics,1.9E+01
same,Nuclei_Neighbors_PercentTouching_2 t-statistics,2.0E+01
same,Nuclei_Neighbors_SecondClosestDistance_2 t-statistics,4.5E+00
same,Nuclei_Neighbors_SecondClosestObjectNumber_2 t-statistics,−1.2E+01
same,Nuclei_Number_Object_Number t-statistics,−1.2E+01

# Reference: US20240398989A1, “METHODS AND COMPOSITIONS FOR DIAGNOSIS AND TREATMENT OF METABOLIC DISORDERS” (The Broad Institute, Inc., priority 2021, published 2024)
